Columns and labels:
[1] = Final pH of treated solution; assay type: physicochemical; conditions: 0.2 grams of reagent; water 4.36
Text: The basicity of certain reagents was examined in terms of the reagents' relative ability to recover iodine. […] The amount of each reagent was 0.2 grams.

[2] = cited from earlier work

Row | Structure (SMILES) | Final pH of Treated Solution [1] | Water Solubility [2] [g/100 cc]
1 | [Ca+2].[OH-].[OH-] [Ca(OH)2, calcium hydroxide] | 12.23 | –
2 | [O]=[Mg] [MgO, magnesium oxide] | 7.33 | 0.001
3 | O=C(O)O [MgCO3, magnesium carbonate] | 7.96 | –
4 | O=C(O)O [CaCO3, Calcium carbonate] | 7.12 | –
5 | [Mg+2].[OH-].[OH-] [Mg(OH)2, magnesium hydroxide] | 8.86 | –
6 | [O]=[Ca] [CaO, calcium oxide] | 12.34 | 0.131

— patent US5520901A, “Method for the recovery of iodine from an environment” (General Electric Company, priority 1993, dated 1996)
